pIC50: −log10 of the molar value. Where a SMILES comes first, the peptide text is derived from it. [ ]: non-standard residue; d: D form. The star is where a group is joined. Dihydrocaffeoyl = O=C(CCc1ccc(O)c(O)c1)*; Benzoyl(2-Ph) = O=C(c1ccccc1-c1ccccc1)*; Desaminotyrosyl = O=C(CCc1ccc(O)cc1)*; Hydrocinnamoyl = O=C(CCc1ccccc1)*; N(Me)CH2CH2Ph = CN(CCc1ccccc1)*; Pentanoyl(4-Me) = CC(C)CCC(=O)*; O(2S-octyl) = CCCCCC[C@H](C)O*; NHPhenethyl = c1ccc(CCN*)cc1; NMeV = CN[C@H](C(=O)O)C(C)C; Morpholide = C1CN(*)CCO1; Pyrrolidide = C1CCN(*)C1; NiPr2 = CC(C)N(C(C)C)*; X1 = CCCCCC[C@@H](C)O*; X3 = c1ccc(CCCO*)cc1; X8 = CN(CCc1ccccn1)*; Bz = O=C(c1ccccc1)*; NHPh = c1ccc(N*)cc1; N(Me)OMe = CON(C)*; NEt2 = CCN(CC)*
Target: HSV-1 ribonucleotide reductase (Human herpesvirus 1, UniProt P08543)
Sequence (P08543 whole entry): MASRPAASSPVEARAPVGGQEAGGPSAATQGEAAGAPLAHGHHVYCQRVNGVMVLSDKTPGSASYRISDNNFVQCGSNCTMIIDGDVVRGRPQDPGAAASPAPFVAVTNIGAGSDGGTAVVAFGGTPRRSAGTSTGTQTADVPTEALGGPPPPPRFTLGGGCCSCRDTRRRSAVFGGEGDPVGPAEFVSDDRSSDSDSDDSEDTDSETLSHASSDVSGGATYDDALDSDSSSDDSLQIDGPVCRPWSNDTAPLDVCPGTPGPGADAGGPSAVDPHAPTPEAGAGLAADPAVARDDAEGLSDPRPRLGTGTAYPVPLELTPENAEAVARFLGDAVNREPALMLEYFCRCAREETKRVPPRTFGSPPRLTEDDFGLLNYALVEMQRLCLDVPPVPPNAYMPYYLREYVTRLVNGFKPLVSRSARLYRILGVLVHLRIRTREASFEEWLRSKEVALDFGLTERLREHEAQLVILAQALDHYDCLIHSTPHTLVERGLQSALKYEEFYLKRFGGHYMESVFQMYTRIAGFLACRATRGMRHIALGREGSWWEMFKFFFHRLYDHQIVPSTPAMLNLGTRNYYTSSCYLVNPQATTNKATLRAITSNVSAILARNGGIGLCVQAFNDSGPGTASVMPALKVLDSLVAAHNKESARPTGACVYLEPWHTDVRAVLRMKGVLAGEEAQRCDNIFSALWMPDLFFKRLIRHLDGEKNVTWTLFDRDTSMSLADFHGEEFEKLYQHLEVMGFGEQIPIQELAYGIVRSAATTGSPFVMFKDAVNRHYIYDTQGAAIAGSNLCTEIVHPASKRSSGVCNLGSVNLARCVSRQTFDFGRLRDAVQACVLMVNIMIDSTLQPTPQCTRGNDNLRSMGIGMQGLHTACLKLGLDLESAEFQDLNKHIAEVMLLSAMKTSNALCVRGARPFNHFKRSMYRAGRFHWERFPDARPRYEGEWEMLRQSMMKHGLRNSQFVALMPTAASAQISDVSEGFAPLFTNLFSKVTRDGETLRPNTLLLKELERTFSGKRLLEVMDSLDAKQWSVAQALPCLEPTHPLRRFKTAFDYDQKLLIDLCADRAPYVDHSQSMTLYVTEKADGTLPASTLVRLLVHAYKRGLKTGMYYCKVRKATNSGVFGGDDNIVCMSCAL
Assay: biochemical
Excerpt: Inhibition of Herpes Simplex Virus (HSV, type 1) Ribonucleotide Reductase
• a) Preparation of Enzyme HSV-1 ribonucleotide reductase (partially purified) was obtained from quiescent BHK-21/C13 cells infected with strain F HSV-1 virus at 10 plaque forming units/cell as described by E.A. Cohen et al., J. Gen. […] The number of units of the enzyme preparation used in each assay was constant, based on the specific activity of the enzyme preparation.

SMILES | pIC50
CC[C@H](C)[C@H](NC(=O)[C@H](C(C)C)N(C)C(=O)CCc1ccc(O)c(O)c1)C(=O)N[C@@H](CC(=O)N1CCCC1)C(=O)N[C@@H](CC(=O)O)C(=O)N[C@@H](CC(C)C)C(=O)O [Entry 28, (3,4-Dihydroxy-Ph)-CH₂CH₂CO-N-Me-Val-Ile-Asp(pyrrolidino)-Asp-Leu-OH] (Dihydrocaffeoyl-[NMeV]ID(Pyrrolidide)DL-OH) | 6.60
CC[C@H](C)[C@H](NC(=O)[C@H](C(C)C)N(C)C(=O)CCc1ccccc1)C(=O)N[C@@H](CC(=O)N(C)C)C(=O)N[C@@H](CC(=O)O)C(=O)N[C@@H](CC(C)C)C(=O)O [Entry 3] (Hydrocinnamoyl-[NMeV]ID(NMe2)DL-OH) | 6.72
CC[C@H](C)[C@H](NC(=O)[C@H](C(C)C)N(C)C(=O)CCc1ccc(O)cc1)C(=O)N[C@@H](CC(=O)OCCCc1ccccc1)C(=O)N[C@@H](CC(=O)O)C(=O)N[C@@H](CC(C)C)C(=O)O [Entry 9] (Desaminotyrosyl-[NMeV]ID(X3)DL-OH) | 6.19
CC[C@H](C)[C@H](NC(=O)[C@H](C(C)C)N(C)C(=O)CCc1ccccc1)C(=O)N[C@@H](CC(=O)N(C)OC)C(=O)N[C@@H](CC(=O)O)C(=O)N[C@@H](CC(C)C)C(=O)O [Entry 8] (Hydrocinnamoyl-[NMeV]ID(N(Me)OMe)DL-OH) | 6.72
CC[C@H](C)[C@H](NC(=O)[C@H](C(C)C)N(C)C(=O)CCc1ccc(O)cc1)C(=O)N[C@@H](CC(=O)N1CCOCC1)C(=O)N[C@@H](CC(=O)O)C(=O)N[C@@H](CC(C)C)C(=O)O [Entry 16] (Desaminotyrosyl-[NMeV]ID(Morpholide)DL-OH) | 6.43
CCCCCC[C@@H](C)OC(=O)C[C@H](NC(=O)[C@@H](NC(=O)[C@H](C(C)C)N(C)C(=O)CCc1ccccc1)[C@@H](C)CC)C(=O)N[C@@H](CC(=O)O)C(=O)N[C@@H](CC(C)C)C(=O)O [Entry 2] (Hydrocinnamoyl-[NMeV]ID(X1)DL-OH) | 6.15
CC[C@H](C)[C@H](NC(=O)[C@H](C(C)C)N(C)C(=O)CCc1ccc(O)cc1)C(=O)N[C@@H](CC(=O)Nc1ccccc1)C(=O)N[C@@H](CC(=O)O)C(=O)N[C@@H](CC(C)C)C(=O)O [Entry 10] (Desaminotyrosyl-[NMeV]ID(NHPh)DL-OH) | 5.80
CCN(CC)C(=O)C[C@H](NC(=O)[C@@H](NC(=O)[C@H](C(C)C)N(C)C(=O)CCc1ccccc1)[C@@H](C)O)C(=O)N[C@@H](CC(=O)O)C(=O)N[C@@H](CC(C)C)C(=O)O [Entry 26, PhCH₂CH₂CO-N-Me-Val-Thr-Asp(NEt₂)-Asp-Leu-OH] (Hydrocinnamoyl-[NMeV]TD(NEt2)DL-OH) | 6.52
CC[C@H](C)[C@H](NC(=O)[C@H](C(C)C)N(C)C(=O)CCc1ccccc1)C(=O)N[C@@H](CC(=O)N1CCCC1)C(=O)N[C@@H](CC(=O)O)C(=O)N[C@@H](CC(C)C)C(=O)O [Entry 6] (Hydrocinnamoyl-[NMeV]ID(Pyrrolidide)DL-OH) | 6.96
CC[C@H](C)[C@H](NC(=O)[C@@H](NC(=O)c1ccccc1)C(C)C)C(=O)N[C@@H](CC(=O)NCCc1ccccc1)C(=O)N[C@@H](CC(=O)O)C(=O)N[C@@H](CC(C)C)C(=O)O [Entry 22, Benzoyl-Val-Ile-Asp-(NHCH₂CH₂Ph)-Asp-Leu-OH] (Bz-VID(NHPhenethyl)DL-OH) | 5.12
CC[C@H](C)[C@H](NC(=O)[C@H](C(C)C)N(C)C(=O)CCc1ccccc1)C(=O)N[C@@H](CC(=O)N(C(C)C)C(C)C)C(=O)N[C@@H](CC(=O)O)C(=O)N[C@@H](CC(C)C)C(=O)O [Entry 5] (Hydrocinnamoyl-[NMeV]ID(NiPr2)DL-OH) | 6.60
CC[C@H](C)[C@H](NC(=O)[C@H](C(C)C)N(C)C(=O)CCc1ccc(O)cc1)C(=O)N[C@@H](CC(=O)N(CC)CC)C(=O)N[C@@H](CC(=O)O)C(=O)N[C@@H](CC(C)C)C(=O)O [Entry 13, DAT-N-Me-Val-Ile-Asp(NEt₂)-Asp-Leu-OH] (Desaminotyrosyl-[NMeV]ID(NEt2)DL-OH) | 6.57
CC[C@H](C)[C@H](NC(=O)[C@@H](NC(C)=O)C(C)C)C(=O)N[C@@H](CC(=O)NCCc1ccccc1)C(=O)N[C@@H](CC(=O)O)C(=O)N[C@@H](CC(C)C)C(=O)O [Entry 23, Ac-Val-Ile-Asp(NHCH₂CH₂Ph)-Asp-Leu-OH] (Ac-VID(NHPhenethyl)DL-OH) | 4.74
CC[C@H](C)[C@H](NC(=O)[C@H](C(C)C)N(C)C(=O)CCc1ccc(O)cc1)C(=O)N[C@@H](CC(=O)N(C)C)C(=O)N[C@@H](CC(=O)O)C(=O)N[C@@H](CC(C)C)C(=O)O [Entry 12] (Desaminotyrosyl-[NMeV]ID(NMe2)DL-OH) | 7.05
CC[C@H](C)[C@H](NC(=O)[C@H](C(C)C)N(C)C(=O)CCc1ccc(O)cc1)C(=O)N[C@@H](CC(=O)NCCc1ccccc1)C(=O)N[C@@H](CC(=O)O)C(=O)N[C@@H](CC(C)C)C(=O)O [Entry 11] (Desaminotyrosyl-[NMeV]ID(NHPhenethyl)DL-OH) | 6.29
CC[C@H](C)[C@H](NC(=O)[C@@H](NC(=O)CCc1ccc(O)cc1)C(C)C)C(=O)N[C@@H](CC(=O)N(C)CCc1ccccc1)C(=O)N[C@@H](CC(=O)O)C(=O)N[C@@H](CC(C)C)C(=O)O [Entry 20] (Desaminotyrosyl-VID(N(Me)CH2CH2Ph)DL-OH) | 6.26
CCCCCC[C@H](C)OC(=O)C[C@H](NC(=O)[C@@H](NC(=O)[C@H](C(C)C)N(C)C(=O)CCc1ccccc1)[C@@H](C)CC)C(=O)N[C@@H](CC(=O)O)C(=O)N[C@@H](CC(C)C)C(=O)O [Entry 1] (Hydrocinnamoyl-[NMeV]ID(O(2S-octyl))DL-OH) | 6.15
CC[C@H](C)[C@H](NC(=O)[C@@H](NC(=O)c1ccccc1-c1ccccc1)C(C)C)C(=O)N[C@@H](CC(=O)NCCc1ccccc1)C(=O)N[C@@H](CC(=O)O)C(=O)N[C@@H](CC(C)C)C(=O)O [Entry 21, 2-Biphenylylcarbonyl-Val-Ile-Asp-(NHCH₂CH₂Ph)-Asp-Leu-OH] ({Benzoyl(2-Ph)}-VID(NHPhenethyl)DL-OH) | 5.90
CC[C@H](C)[C@H](NC(=O)[C@H](C(C)C)N(C)C(=O)CCC(C)C)C(=O)N[C@@H](CC(=O)N(CC)CC)C(=O)N[C@@H](CC(=O)O)C(=O)N[C@@H](CC(C)C)C(=O)O [Entry 25, 4-Methylpentanoyl-N-Me-Val-Ile-Asp(NEt₂)-Asp-Leu-OH] ({Pentanoyl(4-Me)}-[NMeV]ID(NEt2)DL-OH) | 6.30
CC[C@H](C)[C@H](NC(=O)[C@H](C(C)C)N(C)C(=O)CCc1ccc(O)cc1)C(=O)N[C@@H](CC(=O)N(C)CCc1ccccn1)C(=O)N[C@@H](CC(=O)O)C(=O)N[C@@H](CC(C)C)C(=O)O [Entry 15] (Desaminotyrosyl-[NMeV]ID(X8)DL-OH) | 6.54
CC[C@H](C)[C@H](NC(=O)[C@H](C(C)C)N(C)C(=O)CCc1ccccc1)C(=O)N[C@@H](CC(=O)N1CCOCC1)C(=O)N[C@@H](CC(=O)O)C(=O)N[C@@H](CC(C)C)C(=O)N(CC)CC [Entry 27, PhCH₂CH₂CO-N-Me-Val-Ile-Asp(morpholino)-Asp-Leu-NEt₂] (Hydrocinnamoyl-[NMeV]ID(Morpholide)DL-NEt2) | 5.59
CC[C@H](C)[C@H](NC(=O)[C@@H](NC(=O)CCc1ccc(O)cc1)C(C)C)C(=O)N[C@@H](CC(=O)N(CC)CC)C(=O)N[C@@H](CC(=O)O)C(=O)N[C@@H](CC(C)C)C(=O)O [Entry 19] (Desaminotyrosyl-VID(NEt2)DL-OH) | 6.25
CC[C@H](C)[C@H](NC(=O)[C@H](C(C)C)N(C)C(=O)CCc1ccccc1)C(=O)N[C@@H](CC(=O)N(CC)CC)C(=O)N[C@@H](CC(=O)O)C(=O)N[C@@H](CC(C)C)C(=O)O [Entry 4] (Hydrocinnamoyl-[NMeV]ID(NEt2)DL-OH) | 6.59
CC[C@H](C)[C@H](NC(=O)[C@H](C(C)C)N(C)C(=O)CCc1ccccc1)C(=O)N[C@@H](CC(=O)N1CCOCC1)C(=O)N[C@@H](CC(=O)O)C(=O)N[C@@H](CC(C)C)C(=O)O [Entry 7] (Hydrocinnamoyl-[NMeV]ID(Morpholide)DL-OH) | 6.74
CC[C@H](C)[C@H](NC(=O)[C@H](C(C)C)N(C)C(=O)CCc1ccc(O)cc1)C(=O)N[C@@H](CC(=O)N(C)CCc1ccccc1)C(=O)N[C@@H](CC(=O)O)C(=O)N[C@@H](CC(C)C)C(=O)O [Entry 14] (Desaminotyrosyl-[NMeV]ID(N(Me)CH2CH2Ph)DL-OH) | 6.42
CCNC(=O)C[C@H](NC(=O)[C@@H](NC(=O)[C@@H](NC(=O)CCc1ccc(O)cc1)C(C)C)[C@@H](C)CC)C(=O)N[C@@H](CC(=O)O)C(=O)N[C@@H](CC(C)C)C(=O)O [Entry 18] (Desaminotyrosyl-VID(NHEt)DL-OH) | 5.76
CC[C@H](C)[C@H](NC(=O)[C@@H](NC(=O)CCc1ccc(O)cc1)C(C)C)C(=O)N[C@@H](CC(=O)NCCc1ccccc1)C(=O)N[C@@H](CC(=O)O)C(=O)N[C@@H](CC(C)C)C(=O)O [Entry 17] (Desaminotyrosyl-VID(NHPhenethyl)DL-OH) | 5.77

— patent EP0411334B1, “Antiherpes pentapeptide derivatives having a substituted aspartic acid side chain” (BIO-MEGA/BOEHRINGER INGELHEIM RESEARCH INC., priority 1989, dated 1991)
